Test results as given in patent US10765114B2, “4-amino-6-(pyridyl and 2-substitutedphenyl)-picolinates and 6-amino-2-(pyridyl and 2-substitutedphenyl)-pyrimidine-4-carboxylates and their use as herbicides” (Dow AgroSciences LLC, priority 2013, dated 2020).
Where two headings read alike, the source gives them in different places.

How the values were obtained:
[1] = test system: Key Broadleaf Weed and Crop Species; assay: Post-Emergent Test II (Table 5); type: in vivo; settings: post-emergence, 336 h; for pest or weed control at 70 g/ha: application rate 70 (kg ai/ha; footnote: g ai/ha); for pest or weed control at 140 g/ha: application rate 140 (kg ai/ha; footnote: g ai/ha)
Outline: (§1)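 Visual injury ratings (0 = no injury, 100 = complete kill) taken 14 days after treatment, relative to untreated controls. Compounds, in an acetone/DMSO aqueous carrier with crop oil and surfactant, were applied by track sprayer at 187 L/ha, in a twofold dilution series from the top rate, to plants at the first to second true-leaf stage.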

[2] = test system: Key Grass and Sedge Weeds as well as Grass Crops; assay: Post-Emergent Test II (Table 6); type: in vivo; settings: post-emergence, 336 h, 14 days after application; for pest or weed control at 70 g/ha: 70 g ai/ha; for pest or weed control at 140 g/ha: 140 g ai/ha
Outline: as §1

[3] = Abutilon theophrasti, ABUTH: velvetleaf (Abutilon theophrasti), read-out: Visual Growth Reduction (%) 14 Days After Application ABUTH
[4] = Amaranthus retroflexus, AMARE: redroot pigweed (Amaranthus retroflexus), read-out: Visual Growth Reduction (%) 14 Days After Application AMARE
[5] = Brassica napus, BRSSS: oilseed rape, canola (Brassica napus), read-out: Visual Growth Reduction (%) 14 Days After Application BRSSS
[6] = Chenopodium album, CHEAL: lambsquarters (Chenopodium album), read-out: Visual Growth Reduction (%) 14 Days After Application CHEAL
[7] = Euphorbia heterophylla, EPHHL: wild poinsettia (Euphorbia heterophylla), read-out: Visual Growth Reduction (%) 14 Days After Application EPHHL
[8] = Helianthus annuus, HELAN: sunflower (Helianthus annuus), read-out: Visual Growth Reduction (%) 14 Days After Application HELAN
[9] = Viola tricolor, VIOTR: wild pansy (Viola tricolor), read-out: Visual Growth Reduction (%) 14 Days After Application VIOTR
[10] = CYPSS, read-out: Visual Growth Reduction (%) 14 Days After Application CYPSS
[11] = DIGSA: crabgrass (Digitaria sanguinalis), read-out: Visual Growth Reduction (%) 14 Days After Application DIGSA
[12] = ECHSS, read-out: Visual Growth Reduction (%) 14 Days After Application ECHSS
[13] = ORYSS (crop), read-out: Visual Growth Reduction (%) 14 Days After Application ORYSS
[14] = SETFA: giant foxtail (Setaria faberi), read-out: Visual Growth Reduction (%) 14 Days After Application SETFA
[15] = SORVU: grain sorghum (Sorghum vulgare), read-out: Visual Growth Reduction (%) 14 Days After Application SORVU
[16] = TRZSS (crop), read-out: Visual Growth Reduction (%) 14 Days After Application TRZSS
[17] = ZEAMX: maize, corn (Zea mays), read-out: Visual Growth Reduction (%) 14 Days After Application ZEAMX

| Structure (SMILES) | pest or weed control at 70 g/ha [1, 3] [%] | pest or weed control at 140 g/ha [1, 3] [%] | pest or weed control at 70 g/ha [1, 5] [%] | pest or weed control at 140 g/ha [1, 5] [%] | pest or weed control at 70 g/ha [1, 6] [%] | pest or weed control at 140 g/ha [1, 6] [%] | pest or weed control at 70 g/ha [1, 7] [%] | pest or weed control at 140 g/ha [1, 7] [%] | pest or weed control at 70 g/ha [1, 8] [%] | pest or weed control at 140 g/ha [1, 8] [%] | pest or weed control at 70 g/ha [1, 9] [%] | pest or weed control at 140 g/ha [1, 9] [%] | pest or weed control at 70 g/ha [2, 10] [%] | pest or weed control at 140 g/ha [2, 10] [%] | pest or weed control at 70 g/ha [2, 11] [%] | pest or weed control at 140 g/ha [2, 11] [%] | pest or weed control at 70 g/ha [2, 12] [%] | pest or weed control at 140 g/ha [2, 12] [%] | pest or weed control at 70 g/ha [2, 13] [%] | pest or weed control at 140 g/ha [2, 13] [%] | other results |
| --- | --- | --- | --- | --- | --- | --- | --- | --- | --- | --- | --- | --- | --- | --- | --- | --- | --- | --- | --- | --- | --- |
| COc1ccc(-c2nc(C(=O)O)c(Cl)c(N)c2F)cn1 [Compound 30] | 95 to 100 | 95 to 100 | 95 to 100 | 95 to 100 | 95 to 100 | 95 to 100 | 95 to 100 | 95 to 100 | 95 to 100 | 95 to 100 | 0 to 29 | 0 to 29 | 0 to 29 | 0 to 29 | 60 to 74 | 60 to 74 | 95 to 100 | 95 to 100 | 30 to 44 | 45 to 59 | pest or weed control at 70 g/ha [1, 4]: 95 to 100%; pest or weed control at 140 g/ha [1, 4]: 95 to 100%; pest or weed control at 70 g/ha [2, 14]: 75 to 84%; pest or weed control at 140 g/ha [2, 14]: 85 to 94%; pest or weed control at 70 g/ha [2, 15]: 45 to 59%; pest or weed control at 140 g/ha [2, 15]: 85 to 94%; pest or weed control at 70 g/ha [2, 16]: 0 to 29%; pest or weed control at 140 g/ha [2, 16]: 0 to 29%; pest or weed control at 70 g/ha [2, 17]: 95 to 100%; pest or weed control at 140 g/ha [2, 17]: 95 to 100%; melting point: 166 to 167 °C |
| COC(=O)c1nc(-c2ccc(Cl)nc2F)nc(N)c1Cl [Compound 94] | 0 to 29 | 30 to 44 | 0 to 29 | 0 to 29 | 60 to 74 | 75 to 84 | 0 to 29 | 0 to 29 | 30 to 44 | 30 to 44 | 0 to 29 | 0 to 29 | 0 to 29 | 0 to 29 | 0 to 29 | 0 to 29 | 0 to 29 | 0 to 29 | 0 to 29 | 0 to 29 | pest or weed control at 70 g/ha [2, 14]: 0 to 29%; pest or weed control at 140 g/ha [2, 14]: 0 to 29%; pest or weed control at 70 g/ha [2, 15]: 0 to 29%; pest or weed control at 140 g/ha [2, 15]: 0 to 29%; pest or weed control at 70 g/ha [2, 16]: 0 to 29%; pest or weed control at 140 g/ha [2, 16]: 0 to 29%; pest or weed control at 70 g/ha [2, 17]: 0 to 29%; pest or weed control at 140 g/ha [2, 17]: 0 to 29%; melting point: 192 to 195 °C |
| COc1c(N)nc(-c2ccc(Cl)c(F)c2C)nc1C(=O)O [Compound 64] | 0 to 29 | 0 to 29 | 0 to 29 | 0 to 29 | 95 to 100 | 95 to 100 | 0 to 29 | 0 to 29 | 45 to 59 | 85 to 94 | 0 to 29 | 0 to 29 | 0 to 29 | 0 to 29 | 0 to 29 | 0 to 29 | 0 to 29 | 0 to 29 | 0 to 29 | 0 to 29 | pest or weed control at 70 g/ha [1, 4]: 60 to 74%; pest or weed control at 140 g/ha [1, 4]: 75 to 84%; pest or weed control at 70 g/ha [2, 14]: 0 to 29%; pest or weed control at 140 g/ha [2, 14]: 0 to 29%; pest or weed control at 70 g/ha [2, 15]: 0 to 29%; pest or weed control at 140 g/ha [2, 15]: 0 to 29%; pest or weed control at 70 g/ha [2, 16]: 0 to 29%; pest or weed control at 140 g/ha [2, 16]: 0 to 29%; pest or weed control at 70 g/ha [2, 17]: 0 to 29%; pest or weed control at 140 g/ha [2, 17]: 0 to 29%; melting point: 140 to 143 °C |
